The values below come from patent publication US6291677A, “Compounds having activity as inhibitors of cytochrome P450RAI” (Allergan Sales, Inc., priority 2000, dated 2001).

One data set deals with skin. The following applies: humans; topical ATRA, oral 13-cis RA and etretinate; cited from earlier work.
A further data set has as its system RARβ. Kind of data set: chimeric receptor transactivation assay, RARβ. The class given is cell-based. The following applies: unit assumed. The source says:
Assays described below measure the ability of a compound to bind to, and/or activate various retinoid receptor subtypes. When in these assays a compound binds to a given receptor subtype and activates the transcription of a reporter gene through that subtype, then the compound is considered an agonist of that receptor subtype. […] In the below described assays the ability of the compounds to bind to RARα, RARβ, RARγ,RXRα, RXRβ and RXRγ receptors, and the ability or inability of the compounds to activate transcription of a reporter gene through these receptor subtypes can be tested.
The results obtained in this assay are expressed in EC50 numbers, as they are also in the chimeric receptor transactivation assay. The results of ligand binding assay are expressed in Kd numbers.

For another data set, the target named is T1, RARα (Homo sapiens, UniProt P10276).
T1 sequence (P10276 1-462): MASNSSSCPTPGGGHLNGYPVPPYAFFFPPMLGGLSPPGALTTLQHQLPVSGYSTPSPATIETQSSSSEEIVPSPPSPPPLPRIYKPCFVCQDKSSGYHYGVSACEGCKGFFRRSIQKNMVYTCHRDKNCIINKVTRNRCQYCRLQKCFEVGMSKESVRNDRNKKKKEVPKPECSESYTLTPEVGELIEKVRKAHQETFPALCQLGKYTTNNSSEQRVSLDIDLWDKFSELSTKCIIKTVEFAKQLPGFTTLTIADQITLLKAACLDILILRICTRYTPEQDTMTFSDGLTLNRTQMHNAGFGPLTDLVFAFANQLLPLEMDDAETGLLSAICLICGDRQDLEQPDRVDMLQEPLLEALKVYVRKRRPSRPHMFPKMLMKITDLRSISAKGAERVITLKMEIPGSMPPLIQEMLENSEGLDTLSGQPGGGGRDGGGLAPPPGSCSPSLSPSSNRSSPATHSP
Kind of data set: ligand binding assay, RARα. To be noted: read-out: Kd RAR α.

A further data set relates to skin of hairless mice. Kind of data set: topical skin irritation test in hairless mice. The class given is in vivo, female hairless mice (Crl:SKH1-hrBR). The following applies: once daily days 1 through 5, mean±SD. An excerpt:
Mice were housed individually throughout the dosing period.
Doses are disclosed as nmol/25 g.
The grading scale used is as follows:
Values can range from 0-9.
Values can range from 0-8.

Another data set concerns the target T2, P450RAI-1 (Homo sapiens, UniProt O43174).
T2 sequence (O43174 1-497): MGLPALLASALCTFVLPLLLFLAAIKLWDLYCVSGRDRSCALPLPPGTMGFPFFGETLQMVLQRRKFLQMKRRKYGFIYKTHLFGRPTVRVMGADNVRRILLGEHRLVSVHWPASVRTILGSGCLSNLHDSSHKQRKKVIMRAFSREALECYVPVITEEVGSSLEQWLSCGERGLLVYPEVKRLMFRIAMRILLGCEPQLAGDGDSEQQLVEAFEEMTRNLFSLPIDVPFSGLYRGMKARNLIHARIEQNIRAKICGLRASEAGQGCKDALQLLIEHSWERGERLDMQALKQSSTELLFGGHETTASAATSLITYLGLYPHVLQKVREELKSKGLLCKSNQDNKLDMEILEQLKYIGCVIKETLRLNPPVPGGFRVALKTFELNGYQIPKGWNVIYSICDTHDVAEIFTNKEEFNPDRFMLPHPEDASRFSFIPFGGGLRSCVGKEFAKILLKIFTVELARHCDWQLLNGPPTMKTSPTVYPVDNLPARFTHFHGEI
Kind of data set: cell-based. The following applies: intact HeLa, P450RAI-1 stably transfected, [3H]-RA, 3 hours at 37° C; read-out: P450RAI INHIBITION DATA INTACT HELA IC50. As for the experimental part:
FIG. 1 is a schematic representation of the P450RAI cell based assay utilized to evaluate the ability of the compounds of the invention to inhibit the Cytochrome P450RAI enzyme.
P450RAI-1 Cell-Based Inhibitor Assay:
P450RAI-1 stably transfected HeLa cells are maintained in […] tissue culture dishes in Modified Eagle's Medium (MEM) containing 10% Fetal Bovine Serum (FBS) and 100 μg/ml hygromycin. Exponentially growing cells are harvested by incubating in trypsin. Cells are then washed with 1× Phosphate Buffered Saline (PBS) and plated in a 48-well plate at 5×10^5 cells in 0.2 ml MEM medium containing 10% FBS and 0.05 μCi [^3 H]-RA in the presence or absence of increasing concentrations of the test compounds. The compounds are diluted in 100% DMSO and then added in triplicate wells at either 10, 1 or 0.1 μM final concentration. As a positive control for RA metabolism inhibition, cells are also incubated with ketoconazole at 100, 10 and 1 μM. Cell are incubated for 3 hours at 37° C. […] The water soluble radioactivity is quantified using a β-scintillationcounter. IC50 values represent the concentration of inhibitor required to inhibit all-trans-RA metabolism by 50 percent and are derived manually from log-transformed data.

The subject of another data set is psoriasis. To be noted: treatment with liarozole; cited from earlier work.

As usually defined, the Kd is the concentration at which binding is half-saturated. Usually IC50 stands for the concentration that inhibits the measured activity by half.

Description for RARα: Assays described below measure the ability of a compound to bind to, and/or activate various retinoid receptor subtypes. […] In the below described assays the ability of the compounds to bind to RARα, RARβ, RARγ,RXRα, RXRβ and RXRγ receptors, and the ability or inability of the compounds to activate transcription of a reporter gene through these receptor subtypes can be tested.

With `CC1=C(/C=C/C(C)=C/C=C/C(C)=C\C(=O)O)C(C)(C)CCC1` [13-cis RA], the skin irritation entry in the data set on skin is on record as “substantial skin irritation in humans”.

In the data set on RARβ, `CN(C1CC1)C1CCC(C)(C)c2cc(C#Cc3ccc(CC(=O)O)cc3)ccc21` (stereo not drawn) [Compound 8, 4-[(5-(Cyclopropyl-methyl-amino)-8,8-dimethyl-5,6,7,8-tetrahydro-naphthalene-2-yl-ethynyl)-phenyl]-acetic acid] yielded a (EFFICACY) RAR β of 96%. For the same compound, the dissociation constant Kd on RARα was 10 µM. Besides, the “Cutaneous Toxicity Score (Blackjack Score)” value in the data set with skin of hairless mice (100 nmole) was found to be 5 ± 2; with skin of hairless mice (300 nmole) it was 8 ± 3; with skin of hairless mice (1000 nmole), 12 ± 1. As to `CC(C)N(C)C1CCC(C)(C)c2cc(C#Cc3ccc(C(=O)O)cc3)ccc21` (stereo not drawn) [Compound 26], the IC50 on P450RAI-1 was determined as 10 µM.

Take `CC1(C)CC(C)(C)c2cc(C#Cc3ccc(CC(=O)O)c(F)c3)ccc2O1` [Compound 32, [2-Fluoro-4-(2,2,4,4-tetramethyl-chroman-6-yl-ethynyl)phenyl]acetic acid]: the IC50 at P450RAI-1 was 0.13 µM. `CC1(C)CC(C)(C)c2cc(C#Cc3ccc(CC(=O)O)c(F)c3)cc(C3CC3)c2O1` [Compound 38, [4-(8-Cyclopropyl-2,2,4,4-tetramethyl-chroman-6-yl-ethynyl)-2-fluorophenyl]acetic acid]: the Kd at RARα is 10 µM. Further, the “Cutaneous Toxicity Score (Blackjack Score)” value with skin of hairless mice (100 nmole) is reported as 1 ± 1; in the data set on skin of hairless mice (1000 nmole), 10 ± 1. For `Cc1cc(C#Cc2ccc(CC(=O)O)cc2)ccc1Cn1ccnc1` [Compound 121, [4-(4-Imidazol-1-yl-methyl-3-methyl-phenylethynyl)-phenyl]-acetic acid], the IC50 on P450RAI-1 is 0.18 µM. As to `CC1=C(/C=C/C(C)=C/C=C/C(C)=C/C(=O)O)C(C)(C)CCC1` [all-trans-retinoic acid], in the data set with skin, the skin irritation entry is reported as “substantial skin irritation in humans”. In the case of `CCOC(=O)/C=C(C)/C=C/C=C(C)/C=C/c1c(C)cc(OC)c(C)c1C` [etretinate], the skin irritation result in the data set with skin is recorded as “substantial skin irritation in humans”. For the compound `Clc1cccc(C(c2ccc3[nH]cnc3c2)n2ccnc2)c1` (stereo not drawn) [liarozole], the “retinoid-like effects, amelioration of psoriasis” value in the data set on psoriasis is “effects similar to treatment by retinoids, for example amelioration of psoriasis”.
